Earlier results in patent publication US8221746B2, “Antioxidant for use in cosmetic, medicated and pharmaceutical preparations” (priority 2008, dated 2012).

Experiments:
[1] = test system: photodamage of facial skin; settings: topical, 3 months
photoaging of the face = settings: topical, 12 weeks, vs placebo gel

O=C1O[C@H]([C@@H](O)CO)C(O)=C1O [vitamin C]
patient questionnaire overall improvement greater than control [1]: 84.2% | photographic assessment improvement greater than the improvement in the control group [1]: 57.9% | combined score improvement, optical image analysis of skin surface ([1]; compared to placebo-vehicle side of face): 71% | clinical improvement in wrinkling (in words) (photoaging of the face): clinically visible and statistically significant improvement in wrinkling
